According to ChEMBL document CHEMBL4507277:

How the values were obtained:
[1] = tested on: Hepatocyte growth factor receptor (Homo sapiens), P08581 [M1250T]; conditions: Compound concentration 1000.0 nM
[2] = target: STE20/SPS1-related proline-alanine-rich protein kinase (Homo sapiens) (UniProt Q9UEW8); conditions: Compound concentration 1000.0 nM
[3] = target: Casein kinase II subunit alpha' (Homo sapiens) (UniProt P19784); conditions: Compound concentration 1000.0 nM
[4] = target: Mitogen-activated protein kinase kinase kinase kinase 1 (Homo sapiens) (UniProt Q92918); conditions: Compound concentration 1000.0 nM
[5] = target: Homeodomain-interacting protein kinase 4 (Homo sapiens) (UniProt Q8NE63); conditions: Compound concentration 1000.0 nM
[6] = target: Calcium/calmodulin-dependent protein kinase type 1G (Homo sapiens) (UniProt Q96NX5); conditions: Compound concentration 1000.0 nM
[7] = target: AP2-associated protein kinase 1 (Homo sapiens) (UniProt Q2M2I8); conditions: Compound concentration 1000.0 nM
[8] = target: 5-hydroxytryptamine receptor 1B (Homo sapiens) (UniProt P28222); conditions: Compound concentration 10.0 uM
[9] = target: Mitogen-activated protein kinase kinase kinase 14 (Homo sapiens) (UniProt Q99558); conditions: Compound concentration 1000.0 nM
[10] = target: SRSF protein kinase 3 (Homo sapiens) (UniProt Q9UPE1); conditions: Compound concentration 1000.0 nM
[11] = target: High affinity nerve growth factor receptor (Homo sapiens) (UniProt P04629); conditions: Compound concentration 1000.0 nM
[12] = tested on: Phosphatidylinositol 4,5-bisphosphate 3-kinase catalytic subunit alpha isoform (Homo sapiens), P42336 [Q546K]; conditions: Compound concentration 1000.0 nM
[13] = target: Wee1-like protein kinase (Homo sapiens) (UniProt P30291); conditions: Compound concentration 1000.0 nM
[14] = tested on: Epidermal growth factor receptor (Homo sapiens), P00533 [L861Q]; conditions: Compound concentration 1000.0 nM
[15] = target: Cyclin-dependent kinase-like 5 (Homo sapiens) (UniProt O76039); conditions: Compound concentration 1000.0 nM
[16] = target: Ephrin type-B receptor 2 (Homo sapiens) (UniProt P29323); conditions: Compound concentration 1000.0 nM
[17] = target: Mitogen-activated protein kinase kinase kinase 12 (Homo sapiens) (UniProt Q12852); conditions: Compound concentration 1000.0 nM
[18] = target: Muscarinic acetylcholine receptor M5 (Homo sapiens) (UniProt P08912); conditions: Compound concentration 10.0 uM
[19] = target: Histamine H3 receptor (Homo sapiens) (UniProt Q9Y5N1); conditions: Compound concentration 10.0 uM
[20] = target: NUAK family SNF1-like kinase 2 (Homo sapiens) (UniProt Q9H093); conditions: Compound concentration 1000.0 nM
[21] = target: Receptor tyrosine-protein kinase erbB-3 (Homo sapiens) (UniProt P21860); conditions: Compound concentration 1000.0 nM
[22] = target: Rhodopsin kinase GRK7 (Homo sapiens) (UniProt Q8WTQ7); conditions: Compound concentration 1000.0 nM
[23] = target: TRAF2 and NCK-interacting protein kinase (Homo sapiens) (UniProt Q9UKE5); conditions: Compound concentration 1000.0 nM
[24] = target: Cyclin-dependent kinase 18 (Homo sapiens) (UniProt Q07002); conditions: Compound concentration 1000.0 nM
[25] = target: Mitogen-activated protein kinase kinase kinase kinase 2 (Homo sapiens) (UniProt Q12851); conditions: Compound concentration 1000.0 nM
[26] = tested on: Tyrosine-protein kinase ABL1 (Homo sapiens), P00519 [E255K]; conditions: Compound concentration 1000.0 nM
[27] = target: Mitogen-activated protein kinase 15 (Homo sapiens) (UniProt Q8TD08); conditions: Compound concentration 1000.0 nM
[28] = target: Microtubule-associated serine/threonine-protein kinase 1 (Homo sapiens) (UniProt Q9Y2H9); conditions: Compound concentration 1000.0 nM
[29] = target: Phosphatidylinositol 4-phosphate 5-kinase type-1 alpha (Homo sapiens) (UniProt Q99755); conditions: Compound concentration 1000.0 nM
[30] = target: Proto-oncogene tyrosine-protein kinase Src (Homo sapiens) (UniProt P12931); conditions: Compound concentration 1000.0 nM
[31] = target: Death-associated protein kinase 3 (Homo sapiens) (UniProt O43293); conditions: Compound concentration 1000.0 nM
[32] = target: Inhibitor of nuclear factor kappa-B kinase subunit alpha (Homo sapiens) (UniProt O15111); conditions: Compound concentration 1000.0 nM
[33] = target: Aurora kinase B (Homo sapiens) (UniProt Q96GD4); conditions: Compound concentration 1000.0 nM
[34] = tested on: Tyrosine-protein kinase ABL1 (Homo sapiens), P00519 [F317I]; conditions: Compound concentration 1000.0 nM
[35] = target: Serine/threonine-protein kinase 33 (Homo sapiens) (UniProt Q9BYT3); conditions: Compound concentration 1000.0 nM
[36] = tested on: Receptor-type tyrosine-protein kinase FLT3 (Homo sapiens), P36888 [N841I]; conditions: Compound concentration 1000.0 nM
[37] = tested on: Epidermal growth factor receptor (Homo sapiens), P00533 [UNDEFINED MUTATION]; conditions: Compound concentration 1000.0 nM
[38] = target: Atypical kinase COQ8B, mitochondrial (Homo sapiens) (UniProt Q96D53); conditions: Compound concentration 1000.0 nM
[39] = tested on: Tyrosine-protein kinase ABL1 (Homo sapiens), P00519 [Q252H]; conditions: Compound concentration 1000.0 nM
[40] = target: Tyrosine-protein kinase Lck (Homo sapiens) (UniProt P06239); conditions: Compound concentration 1000.0 nM
[41] = target: Death-associated protein kinase 1 (Homo sapiens) (UniProt P53355); conditions: Compound concentration 1000.0 nM
[42] = target: Dual specificity mitogen-activated protein kinase kinase 7 (Homo sapiens) (UniProt O14733); conditions: Compound concentration 1000.0 nM
[43] = target: Tyrosine-protein kinase receptor UFO (Homo sapiens) (UniProt P30530); conditions: Compound concentration 1000.0 nM
[44] = target: Tyrosine-protein kinase Tec (Homo sapiens) (UniProt P42680); conditions: Compound concentration 1000.0 nM
[45] = target: Vascular endothelial growth factor receptor 1 (Homo sapiens) (UniProt P17948); conditions: Compound concentration 1000.0 nM

Homeodomain-interacting protein kinase 4 (Homo sapiens), sequence (Q8NE63 whole entry): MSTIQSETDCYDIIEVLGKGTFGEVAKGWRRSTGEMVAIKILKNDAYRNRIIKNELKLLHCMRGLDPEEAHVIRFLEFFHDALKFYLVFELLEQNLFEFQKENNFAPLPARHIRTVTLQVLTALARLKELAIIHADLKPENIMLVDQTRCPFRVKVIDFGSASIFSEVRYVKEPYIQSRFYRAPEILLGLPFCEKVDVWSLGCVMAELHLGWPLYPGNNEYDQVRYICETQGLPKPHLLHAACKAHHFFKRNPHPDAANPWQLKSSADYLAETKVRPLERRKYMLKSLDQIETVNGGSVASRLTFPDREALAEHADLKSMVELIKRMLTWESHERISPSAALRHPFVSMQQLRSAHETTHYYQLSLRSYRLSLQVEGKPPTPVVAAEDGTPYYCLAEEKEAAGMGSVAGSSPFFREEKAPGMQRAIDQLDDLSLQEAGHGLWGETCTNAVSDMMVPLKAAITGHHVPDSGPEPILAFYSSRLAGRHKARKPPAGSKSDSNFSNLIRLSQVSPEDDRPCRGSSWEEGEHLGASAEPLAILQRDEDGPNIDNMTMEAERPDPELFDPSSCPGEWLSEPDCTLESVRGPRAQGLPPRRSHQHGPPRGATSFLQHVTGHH
Mitogen-activated protein kinase 15 (Homo sapiens), sequence (Q8TD08 whole entry): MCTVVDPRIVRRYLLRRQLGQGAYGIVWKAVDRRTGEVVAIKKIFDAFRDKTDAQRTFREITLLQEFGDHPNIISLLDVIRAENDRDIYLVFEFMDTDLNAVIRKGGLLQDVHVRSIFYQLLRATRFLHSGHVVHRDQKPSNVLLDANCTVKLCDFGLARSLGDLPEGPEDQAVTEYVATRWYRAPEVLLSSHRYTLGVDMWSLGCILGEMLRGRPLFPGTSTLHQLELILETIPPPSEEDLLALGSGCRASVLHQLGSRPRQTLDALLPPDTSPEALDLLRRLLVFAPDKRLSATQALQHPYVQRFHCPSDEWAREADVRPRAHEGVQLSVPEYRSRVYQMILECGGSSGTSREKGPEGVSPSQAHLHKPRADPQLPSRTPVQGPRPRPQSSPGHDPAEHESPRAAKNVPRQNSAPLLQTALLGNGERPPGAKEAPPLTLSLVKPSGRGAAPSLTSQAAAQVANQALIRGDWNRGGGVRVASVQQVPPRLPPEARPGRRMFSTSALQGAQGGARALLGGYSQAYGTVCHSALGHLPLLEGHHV
Muscarinic acetylcholine receptor M5 (Homo sapiens), sequence (P08912 whole entry): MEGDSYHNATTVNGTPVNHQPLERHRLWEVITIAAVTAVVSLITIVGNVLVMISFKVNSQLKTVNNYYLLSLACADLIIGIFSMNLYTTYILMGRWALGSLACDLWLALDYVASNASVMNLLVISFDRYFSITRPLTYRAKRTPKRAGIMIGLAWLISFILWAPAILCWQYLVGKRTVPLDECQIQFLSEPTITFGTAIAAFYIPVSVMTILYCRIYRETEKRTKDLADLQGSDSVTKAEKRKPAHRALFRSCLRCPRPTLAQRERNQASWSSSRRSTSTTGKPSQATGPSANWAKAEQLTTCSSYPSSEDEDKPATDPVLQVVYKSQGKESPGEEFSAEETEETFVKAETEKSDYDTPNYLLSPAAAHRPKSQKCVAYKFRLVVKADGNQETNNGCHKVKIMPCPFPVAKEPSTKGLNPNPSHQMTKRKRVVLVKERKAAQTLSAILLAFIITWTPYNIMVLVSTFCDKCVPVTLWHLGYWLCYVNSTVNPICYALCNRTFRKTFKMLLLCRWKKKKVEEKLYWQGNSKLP
Calcium/calmodulin-dependent protein kinase type 1G (Homo sapiens), sequence (Q96NX5 whole entry): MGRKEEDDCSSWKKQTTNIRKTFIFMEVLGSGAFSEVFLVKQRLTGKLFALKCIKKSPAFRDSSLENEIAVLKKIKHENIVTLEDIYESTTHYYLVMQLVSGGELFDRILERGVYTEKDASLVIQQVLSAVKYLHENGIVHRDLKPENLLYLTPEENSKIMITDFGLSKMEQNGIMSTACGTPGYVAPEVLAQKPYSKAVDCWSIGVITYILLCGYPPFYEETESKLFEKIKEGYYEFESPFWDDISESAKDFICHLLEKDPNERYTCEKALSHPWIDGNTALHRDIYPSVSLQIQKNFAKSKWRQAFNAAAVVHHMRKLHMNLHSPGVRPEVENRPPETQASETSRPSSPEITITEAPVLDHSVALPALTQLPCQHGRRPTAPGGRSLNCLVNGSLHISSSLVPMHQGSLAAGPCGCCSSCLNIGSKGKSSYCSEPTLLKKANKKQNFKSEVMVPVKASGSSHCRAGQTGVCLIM
Rhodopsin kinase GRK7 (Homo sapiens), sequence (Q8WTQ7 whole entry): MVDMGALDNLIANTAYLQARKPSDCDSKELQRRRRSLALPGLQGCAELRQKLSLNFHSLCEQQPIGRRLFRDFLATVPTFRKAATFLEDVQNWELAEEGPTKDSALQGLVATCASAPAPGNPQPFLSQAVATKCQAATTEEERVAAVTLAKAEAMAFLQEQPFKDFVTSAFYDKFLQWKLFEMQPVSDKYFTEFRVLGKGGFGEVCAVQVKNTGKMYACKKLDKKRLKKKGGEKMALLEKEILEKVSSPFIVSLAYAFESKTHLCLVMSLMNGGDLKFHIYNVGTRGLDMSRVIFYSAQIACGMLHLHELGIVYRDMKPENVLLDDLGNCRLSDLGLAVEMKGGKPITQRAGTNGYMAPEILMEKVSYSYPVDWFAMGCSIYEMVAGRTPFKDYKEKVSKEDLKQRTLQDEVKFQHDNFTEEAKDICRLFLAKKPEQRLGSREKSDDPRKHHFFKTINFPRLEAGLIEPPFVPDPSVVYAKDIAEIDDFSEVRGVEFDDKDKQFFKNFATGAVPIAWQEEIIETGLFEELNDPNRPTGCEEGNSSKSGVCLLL
Receptor tyrosine-protein kinase erbB-3 (Homo sapiens), sequence (P21860 whole entry): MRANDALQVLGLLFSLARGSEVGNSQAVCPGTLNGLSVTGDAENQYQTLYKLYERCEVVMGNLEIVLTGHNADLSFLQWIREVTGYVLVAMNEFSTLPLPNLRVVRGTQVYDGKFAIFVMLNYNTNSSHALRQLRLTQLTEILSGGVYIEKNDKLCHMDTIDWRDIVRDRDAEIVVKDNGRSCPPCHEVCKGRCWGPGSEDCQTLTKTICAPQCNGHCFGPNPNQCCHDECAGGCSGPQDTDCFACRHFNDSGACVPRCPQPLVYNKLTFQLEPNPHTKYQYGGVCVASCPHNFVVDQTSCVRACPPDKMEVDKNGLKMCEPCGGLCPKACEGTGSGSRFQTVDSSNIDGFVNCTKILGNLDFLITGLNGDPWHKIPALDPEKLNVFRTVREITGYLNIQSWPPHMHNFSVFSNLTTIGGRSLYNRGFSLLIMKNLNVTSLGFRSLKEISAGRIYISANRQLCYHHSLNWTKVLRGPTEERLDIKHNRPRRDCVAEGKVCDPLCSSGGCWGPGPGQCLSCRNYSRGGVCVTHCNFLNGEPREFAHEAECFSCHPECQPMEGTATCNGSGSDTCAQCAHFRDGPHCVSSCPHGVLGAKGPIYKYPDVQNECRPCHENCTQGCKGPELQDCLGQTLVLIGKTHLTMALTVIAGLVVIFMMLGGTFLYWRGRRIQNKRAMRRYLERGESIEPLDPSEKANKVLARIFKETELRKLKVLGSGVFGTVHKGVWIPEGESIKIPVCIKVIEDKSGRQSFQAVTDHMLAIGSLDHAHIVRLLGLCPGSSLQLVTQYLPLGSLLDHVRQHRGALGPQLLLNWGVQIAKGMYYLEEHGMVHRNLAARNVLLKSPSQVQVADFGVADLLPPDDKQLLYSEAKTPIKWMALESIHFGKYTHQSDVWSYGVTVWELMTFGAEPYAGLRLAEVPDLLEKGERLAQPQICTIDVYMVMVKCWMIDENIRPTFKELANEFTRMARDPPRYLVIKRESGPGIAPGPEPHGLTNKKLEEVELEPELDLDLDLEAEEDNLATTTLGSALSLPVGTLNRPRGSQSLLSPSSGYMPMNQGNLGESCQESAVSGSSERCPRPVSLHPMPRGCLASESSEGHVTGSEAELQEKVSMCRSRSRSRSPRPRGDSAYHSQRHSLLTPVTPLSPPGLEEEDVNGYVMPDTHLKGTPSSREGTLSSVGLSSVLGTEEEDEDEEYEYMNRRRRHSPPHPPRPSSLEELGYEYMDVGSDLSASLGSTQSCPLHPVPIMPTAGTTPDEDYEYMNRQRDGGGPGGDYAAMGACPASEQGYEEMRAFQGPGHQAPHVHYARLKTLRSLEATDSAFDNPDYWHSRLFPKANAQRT
NUAK family SNF1-like kinase 2 (Homo sapiens), sequence (Q9H093 whole entry): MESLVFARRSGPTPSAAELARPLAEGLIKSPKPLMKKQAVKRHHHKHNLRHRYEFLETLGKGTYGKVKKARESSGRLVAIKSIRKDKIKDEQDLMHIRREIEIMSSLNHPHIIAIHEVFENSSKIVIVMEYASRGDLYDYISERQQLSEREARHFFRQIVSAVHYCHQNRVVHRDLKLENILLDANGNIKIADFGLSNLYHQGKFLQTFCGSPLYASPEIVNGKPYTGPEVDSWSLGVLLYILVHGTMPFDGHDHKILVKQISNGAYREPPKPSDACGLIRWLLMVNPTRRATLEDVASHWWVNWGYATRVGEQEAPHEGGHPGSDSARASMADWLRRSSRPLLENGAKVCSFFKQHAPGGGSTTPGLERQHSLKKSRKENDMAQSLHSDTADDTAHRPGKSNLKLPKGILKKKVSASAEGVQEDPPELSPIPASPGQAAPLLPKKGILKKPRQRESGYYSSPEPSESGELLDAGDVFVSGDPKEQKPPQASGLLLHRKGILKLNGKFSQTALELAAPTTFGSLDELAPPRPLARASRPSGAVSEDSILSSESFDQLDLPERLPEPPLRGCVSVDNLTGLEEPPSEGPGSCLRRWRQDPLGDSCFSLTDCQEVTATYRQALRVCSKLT
Aurora kinase B (Homo sapiens), sequence (Q96GD4 whole entry): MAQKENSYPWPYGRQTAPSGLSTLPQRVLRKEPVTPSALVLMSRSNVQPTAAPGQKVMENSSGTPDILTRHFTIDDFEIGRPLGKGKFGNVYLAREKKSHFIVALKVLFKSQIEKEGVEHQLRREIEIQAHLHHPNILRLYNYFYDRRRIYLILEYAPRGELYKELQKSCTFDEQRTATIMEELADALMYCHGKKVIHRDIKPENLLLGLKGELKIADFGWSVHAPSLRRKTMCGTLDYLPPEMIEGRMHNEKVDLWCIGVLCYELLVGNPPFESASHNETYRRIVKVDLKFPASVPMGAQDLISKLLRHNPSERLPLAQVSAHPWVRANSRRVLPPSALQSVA

CCS(=O)(=O)c1cc2cc(C[C@@](O)(CC(C)(C)c3ccc(F)cc3C(N)=O)C(F)(F)F)[nH]c2cn1
active: residual activity [41] 0%
inactive: residual activity [1] 90% | residual activity [2] 84% | residual activity [3] 83% | residual activity [4] 100% | residual activity [5] 100% | residual activity [6] 100% | residual activity [7] 100% | inhibition [8] 4.85% | residual activity [9] 59% | residual activity [10] 100% | residual activity [11] 74% | residual activity [12] 69% | residual activity [13] 100% | residual activity [14] 100% | residual activity [15] 77% | residual activity [16] 95% | residual activity [17] 83% | inhibition [18] -0.62% | inhibition [19] 11.7% | residual activity [20] 84% | residual activity [21] 100% | residual activity [22] 95% | residual activity [23] 97% | residual activity [24] 100% | residual activity [25] 80% | residual activity [26] 90% | residual activity [27] 100% | residual activity [28] 100% | residual activity [29] 100% | residual activity [30] 100% | residual activity [31] 100% | residual activity [32] 95% | residual activity [33] 71% | residual activity [34] 78% | residual activity [35] 91% | residual activity [36] 100% | residual activity [37] 100% | residual activity [38] 100% | residual activity [39] 79% | residual activity [40] 81% | residual activity [42] 99% | residual activity [43] 100% | residual activity [44] 100% | residual activity [45] 67%

CCS(=O)(=O)c1cc2cc(C[C@](O)(CC(C)(C)c3ccc(F)cc3C(N)=O)C(F)(F)F)[nH]c2cn1
inactive: residual activity [1] 100% | residual activity [2] 100% | residual activity [3] 92% | residual activity [4] 100% | residual activity [5] 100% | residual activity [6] 100% | residual activity [7] 100% | inhibition [8] 9.55% | residual activity [9] 88% | residual activity [10] 100% | residual activity [11] 82% | residual activity [12] 80% | residual activity [13] 100% | residual activity [14] 100% | residual activity [15] 100% | residual activity [16] 100% | residual activity [17] 100% | inhibition [18] 1.86% | inhibition [19] 11.7% | residual activity [20] 95% | residual activity [21] 100% | residual activity [22] 100% | residual activity [23] 100% | residual activity [24] 100% | residual activity [25] 96% | residual activity [26] 92% | residual activity [27] 100% | residual activity [28] 100% | residual activity [29] 100% | residual activity [30] 100% | residual activity [31] 97% | residual activity [32] 100% | residual activity [33] 92% | residual activity [34] 95% | residual activity [35] 97% | residual activity [36] 93% | residual activity [37] 100% | residual activity [38] 78% | residual activity [39] 100% | residual activity [40] 100% | residual activity [41] 92% | residual activity [42] 99% | residual activity [43] 89% | residual activity [44] 90% | residual activity [45] 81%
